Measured values from patent US11702404B2, “GLP-1R modulating compounds” (priority 2019, dated 2023).

Assays:
[1] = Microsomal stability, human liver microsomes (predicted hepatic clearance); settings: predicted from in vitro microsomal stability data
[2] = target: GLP-1R (Homo sapiens, UniProt P43220); experiment: GLP-1R activation: cAMP increase in CHO cells stably expressing GLP-1R; assay type: cell-based; settings: cAMP increase, CHO cells stably expressing GLP-1R, 10 point dose response, 30 minutes incubation; read-out: EC50
GLP-1R, sequence (P43220 24-463): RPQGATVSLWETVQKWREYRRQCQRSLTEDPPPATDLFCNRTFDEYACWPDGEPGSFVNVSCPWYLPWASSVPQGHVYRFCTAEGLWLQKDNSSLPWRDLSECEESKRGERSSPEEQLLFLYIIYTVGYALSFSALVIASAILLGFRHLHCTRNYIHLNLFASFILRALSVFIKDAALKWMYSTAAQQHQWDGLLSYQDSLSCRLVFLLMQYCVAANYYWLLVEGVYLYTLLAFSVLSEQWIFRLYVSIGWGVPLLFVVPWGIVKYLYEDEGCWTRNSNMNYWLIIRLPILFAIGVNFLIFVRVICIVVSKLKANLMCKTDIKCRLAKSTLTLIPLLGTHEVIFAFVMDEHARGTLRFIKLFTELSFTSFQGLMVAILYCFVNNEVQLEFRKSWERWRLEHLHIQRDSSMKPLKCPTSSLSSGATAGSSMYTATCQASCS

| Structure (SMILES) | Predicted Hepatic Clearance (Pred. Cl.) [1] | EC50 [2] |
| --- | --- | --- |
| N#Cc1ccc(COc2nccc(-c3ccc(Cc4nc5ccc(C(=O)O)cc5n4CC4(CF)CC4)cc3F)n2)c(F)c1 [Example 350, 2-(4-(2-((4-cyano-2-fluorobenzyl)oxy)pyrimidin-4-yl)-3-fluorobenzyl)-1-((1-(fluoromethyl)cyclopropyl)methyl)-1H-benzo[d]imidazole-6-carboxylic acid] | 6.33 mL/min/kg | 0.79 nM |
| N#Cc1ccc(COc2nccc(-c3ccc(Cc4nc5ccc(C(=O)O)cc5n4C[C@@H]4CCO4)c(F)c3)n2)c(F)c1 [Example 351, (S)-2-(4-(2-((4-cyano-2-fluorobenzyl)oxy)pyrimidin-4-yl)-2-fluorobenzyl)-1-(oxetan-2-ylmethyl)-1H-benzo[d]imidazole-6-carboxylic acid] | 2 mL/min/kg | 0.96 nM |
| O=C(O)c1ccc2nc(Cc3ccc(-c4cccc(OCc5ccc(Cl)cc5F)n4)cc3F)n(CC3(CF)CC3)c2c1 [Example 352, 2-(4-(6-((4-chloro-2-fluorobenzyl)oxy)pyridin-2-yl)-2-fluorobenzyl)-1-((1-(fluoromethyl)cyclopropyl)methyl)-1H-benzo[d]imidazole-6-carboxylic acid] | <1.83 mL/min/kg | 1.45 nM |
| N#CCC1(Cn2c(Cc3ccc(-c4ccnc(OCc5ccc(C#N)cc5F)n4)cc3F)nc3ccc(C(=O)O)cc32)CC1 [Example 353, 2-(4-(2-((4-cyano-2-fluorobenzyl)oxy)pyrimidin-4-yl)-2-fluorobenzyl)-1-((1-(cyanomethyl)cyclopropyl)methyl)-1H-benzo[d]imidazole-6-carboxylic acid] | <1.83 mL/min/kg | 1.67 nM |
| N#Cc1ccc(COc2cccc(-c3ccc(Cc4nc5ccc(C(=O)O)nc5n4CC4(CF)CC4)c(F)c3)n2)c(F)c1 [Example 355, 2-(4-(6-((4-cyano-2-fluorobenzyl)oxy)pyridin-2-yl)-2-fluorobenzyl)-3-((1-(fluoromethyl)cyclopropyl)methyl)-3H-imidazo[4,5-b]pyridine-5-carboxylic acid] | 3.3 mL/min/kg | 0.97 nM |
| N#Cc1ccc(COc2cccc(-c3ccc(Cc4nc5ccc(C(=O)O)cc5n4C4CC4)c(F)c3)n2)c(F)c1 [Example 356, 2-(4-(6-((4-cyano-2-fluorobenzyl)oxy)pyridin-2-yl)-2-fluorobenzyl)-1-cyclopropyl-1H-benzo[d]imidazole-6-carboxylic acid] | 7.17 mL/min/kg | 48.7 nM |
| COCCn1c(Cc2ccc(-c3cccc(OCc4ccc(C#N)c5ccccc45)n3)cc2F)nc2ccc(C(=O)O)cc21 [Example 357, 2-(4-(6-((4-cyanonaphthalen-1-yl)methoxy)pyridin-2-yl)-2-fluorobenzyl)-1-(2-methoxyethyl)-1H-benzo[d]imidazole-6-carboxylic acid] | <1.83 mL/min/kg | 56.2 nM |
| N#Cc1ccc(COc2nccc(-c3ccc(Cc4nc5ccc(C(=O)O)nc5n4CC4(CF)CC4)c(F)c3)n2)c(F)c1 [Example 359, 2-(4-(2-((4-cyano-2-fluorobenzyl)oxy)pyrimidin-4-yl)-2-fluorobenzyl)-3-((1-(fluoromethyl)cyclopropyl)methyl)-3H-imidazo[4,5-b]pyridine-5-carboxylic acid] | <1.83 mL/min/kg | 3.09 nM |
| N#Cc1ccc(COc2nccc(-c3ccc(Cc4nc5c(F)cc(C(=O)O)cc5n4CC4(CF)CC4)c(F)c3)n2)c(F)c1 [Example 360, 2-(4-(2-((4-cyano-2-fluorobenzyl)oxy)pyrimidin-4-yl)-2-fluorobenzyl)-4-fluoro-1-((1-(fluoromethyl)cyclopropyl)methyl)-1H-benzo[d]imidazole-6-carboxylic acid] | <1.83 mL/min/kg | 0.94 nM |
| COCCn1c(Cc2ccc(-c3cccc(OCc4ccc(C#N)c(F)c4OC)n3)cc2F)nc2ccc(C(=O)O)cc21 [Example 363, 2-(4-(6-((4-cyano-3-fluoro-2-methoxybenzyl)oxy)pyridin-2-yl)-2-fluorobenzyl)-1-(2-methoxyethyl)-1H-benzo[d]imidazole-6-carboxylic acid] | 7.75 mL/min/kg | 8.96 nM |
| CC1(Cn2c(Cc3ccc(-c4cccc(OCc5ccc(C#N)cc5F)n4)cc3F)nc3ccc(C(=O)O)cc32)CCO1 (stereo not drawn) [Example 365, 2-(4-(6-((4-cyano-2-fluorobenzyl)oxy)pyridin-2-yl)-2-fluorobenzyl)-1-((2-methyloxetan-2-yl)methyl)-1H-benzo[d]imidazole-6-carboxylic acid] | 4.67 mL/min/kg | 0.6 nM |
| COc1cc(C#N)ccc1COc1cccc(-c2ccc(Cc3nc4ccc(C(=O)O)cc4n3CC3(CF)CC3)c(F)c2)n1 [Example 367, 2-(4-(6-((4-cyano-2-methoxybenzyl)oxy)pyridin-2-yl)-2-fluorobenzyl)-1-((1-(fluoromethyl)cyclopropyl)methyl)-1H-benzo[d]imidazole-6-carboxylic acid] | 10.8 mL/min/kg | 0.86 nM |
| COCCn1c(Cc2cc(F)c(-c3ccnc(OCc4ccc(C#N)cc4OC)n3)cc2F)nc2ccc(C(=O)O)cc21 [Example 368, 2-(4-(2-((4-cyano-2-methoxybenzyl)oxy)pyrimidin-4-yl)-2,5-difluorobenzyl)-1-(2-methoxyethyl)-1H-benzo[d]imidazole-6-carboxylic acid] | <1.83 mL/min/kg | 0.77 nM |
| CCn1nncc1Cn1c(Cc2ccc(-c3cccc(OCc4ccc(C#N)cc4F)n3)cc2F)nc2ccc(C(=O)O)cc21 [Example 370, 2-(4-(6-((4-cyano-2-fluorobenzyl)oxy)pyridin-2-yl)-2-fluorobenzyl)-1-((l-ethyl-1H-1,2,3-triazol-5-yl)methyl)-1H-benzo[d]imidazole-6-carboxylic acid] | 6.7 mL/min/kg | 3.34 nM |
| N#Cc1ccc(COc2cccc(-c3ccc(Cc4nc5ccc(C(=O)O)cc5n4Cc4ncco4)c(F)c3)n2)c(F)c1 [Example 371, 2-(4-(6-((4-cyano-2-fluorobenzyl)oxy)pyridin-2-yl)-2-fluorobenzyl)-1-(oxazol-2-ylmethyl)-1H-benzo[d]imidazole-6-carboxylic acid] | 3 mL/min/kg | 1.61 nM |
| COCCn1c(Cc2c(F)cc(-c3cccnc3OC(C)c3ccc(Cl)cc3F)cc2F)nc2ccc(C(=O)O)cc21 (stereo not drawn) [Example 372, 2-(4-(2-(1-(4-chloro-2-fluorophenyl)ethoxy)pyridin-3-yl)-2,6-difluorobenzyl)-1-(2-methoxyethyl)-1H-benzo[d]imidazole-6-carboxylic acid] | 7.83 mL/min/kg | 243 nM |

Continued, values first:

| Predicted Hepatic Clearance (Pred. Cl.) [1] | EC50 [2] | Structure (SMILES) |
| --- | --- | --- |
| <1.83 mL/min/kg | 3.05 nM | COCCn1c(Cc2cc(F)c(-c3ccnc(OCc4ccc(C#N)cc4F)n3)cc2F)nc2ccc(C(=O)O)cc21 [Example 349, 2-(4-(2-((4-cyano-2-fluorobenzyl)oxy)pyrimidin-4-yl)-2,5-difluorobenzyl)-1-(2-methoxyethyl)-1H-benzo[d]imidazole-6-carboxylic acid] |
| 7.5 mL/min/kg | 146 nM | Cn1c(Cc2ccc(-c3cccc(OCc4ccc(C#N)cc4F)n3)cc2F)nc2ccc(C(=O)O)cc21 [Example 354, 2-(4-(6-((4-cyano-2-fluorobenzyl)oxy)pyridin-2-yl)-2-fluorobenzyl)-1-methyl-1H-benzo[d]imidazole-6-carboxylic acid] |
| 6.5 mL/min/kg | 33.1 nM | COCCn1c(Cc2ccc(-c3nc(OCc4ccc(C#N)cc4F)ncc3F)cc2F)nc2ccc(C(=O)O)cc21 [Example 358, 2-(4-(2-((4-cyano-2-fluorobenzyl)oxy)-5-fluoropyrimidin-4-yl)-2-fluorobenzyl)-1-(2-methoxyethyl)-1H-benzo[d]imidazole-6-carboxylic] |
| 2.83 mL/min/kg | 0.74 nM | N#Cc1ccc(COc2cccc(-c3ccc(Cc4nc5c(F)cc(C(=O)O)cc5n4CC4(CF)CC4)c(F)c3)n2)c(F)c1 [Example 361, 2-(4-(6-((4-cyano-2-fluorobenzyl)oxy)pyridin-2-yl)-2-fluorobenzyl)-4-fluoro-1-((1-(fluoromethyl)cyclopropyl)methyl)-1H-benzo[d]imidazole-6-carboxylic acid] |
| 16.2 mL/min/kg | 21.8 nM | COCCn1c(Cc2ccc(-c3cccc(OCc4cccc5c4OCO5)n3)cc2F)nc2ccc(C(=O)O)cc21 [Example 362, 2-(4-(6-(benzo[d][1,3]dioxol-4-ylmethoxy)pyridin-2-yl)-2-fluorobenzyl)-1-(2-methoxyethyl)-1H-benzo[d]imidazole-6-carboxylic acid] |
| 3.83 mL/min/kg | 1.76 nM | COCCn1c(Cc2ccc(-c3cccc(OCc4ccc(C#N)cc4F)n3)cc2F)nc2ccc(C(=O)O)c(F)c21 [Example 364, 2-(4-(6-((4-cyano-2-fluorobenzyl)oxy)pyridin-2-yl)-2-fluorobenzyl)-7-fluoro-1-(2-methoxyethyl)-1H-benzo[d]imidazole-6-carboxylic acid] |
| 5.5 mL/min/kg | 20.8 nM | COCCn1c(Cc2ccc(-c3cccc(OCc4ccc(C#N)cc4F)n3)cc2F)nc2ccc(C(=O)O)c(Cl)c21 [Example 366, 7-chloro-2-(4-(6-((4-cyano-2-fluorobenzyl)oxy)pyridin-2-yl)-2-fluorobenzyl)-1-(2-methoxyethyl)-1H-benzo[d]imidazole-6-carboxylic acid] |
| 4.33 mL/min/kg | 0.13 nM | N#Cc1ccc(COc2nccc(-c3ccc(Cc4nc5c(F)cc(C(=O)O)cc5n4C[C@@H]4CCO4)cc3F)n2)c(F)c1 [Example 369, (S)-2-(4-(2-((4-cyano-2-fluorobenzyl)oxy)pyrimidin-4-yl)-3-fluorobenzyl)-4-fluoro-1-(oxetan-2-ylmethyl)-1H-benzo[d]imidazole-6-carboxylic acid] |
